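Grown in 96-well plates, cells were treated for 48 hours with each compound at five concentrations. Insufficient inhibition: endpoint recorded as highest concentration tested. The concentration for 50% growth inhibition is given as GI50. Definition used: TGI = concentration required for complete inhibition of growth.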
Key:
Experiment in all cases: NCI-60 cell line screen, 48 h
[1] = system: LOX IMVI melanoma
[2] = system: A549 NSCLC
[3] = system: M14 melanoma
[4] = system: COLO 205 colon
[5] = system: U251 CNS
[6] = system: NCI-H226 lung
[7] = system: SN12C renal
[8] = system: NCI-H522 lung
[9] = system: PC-3 prostate
[10] = system: OVCAR-4 ovarian
[11] = system: HOP-92 NSCLC
[12] = system: IGROV1 ovarian
[13] = system: SF-268 CNS
[14] = system: OVCAR-8 ovarian
[15] = system: UACC-257 melanoma
[16] = system: SK-OV-3 ovarian
[17] = system: HCC-2998 colon
[18] = system: RPMI-8226 leukemia
[19] = system: ACHN renal
[20] = system: CCRF-CEM leukemia
[21] = system: SNB-75 CNS
[22] = system: HOP-62 NSCLC
[23] = system: DU-145 prostate
[24] = system: HS 578T breast
[25] = system: RXF 393 renal
[26] = system: SNB-19 CNS
[27] = system: MCF7 breast

In the case of CCCCCc1c(C)[nH]c(/C=c2\[nH]/c(=C3/C=c4ccccc4=N3)cc2OC)c1C, the GI50 [1] is reported as 24.8 nM, the TGI [1] is reported as 67.6 nM and the GI50 [2] is reported as 73.2 nM. The TGI [2] was 636 nM, the GI50 [3] was 29.5 nM and the TGI [3] was 375 nM. It also gave a GI50 [4] of 56.8 nM, a TGI [4] of 494 nM and a GI50 [5] of 67 nM. For the same compound, the TGI [5] was 627 nM, the GI50 [6] was 77.7 nM and the TGI [6] was 3950 nM. The GI50 [7] was 92.6 nM, the TGI [7] was 1880 nM and the GI50 [8] was 101 nM. The TGI [8] was 1700 nM, the GI50 [9] was 54.4 nM and the TGI [9] was greater than 100000 nM. It also gave a GI50 [10] of 68.7 nM, a TGI [10] of 16300 nM and a GI50 [11] of 23.6 nM. The TGI [11] was 203 nM, the GI50 [12] was 265 nM and the TGI [12] was 5250 nM. For the same compound, the GI50 [13] was 77 nM, the TGI [13] was 2430 nM and the GI50 [14] was 297 nM. The TGI [14] was 1670 nM, the GI50 [15] was 394 nM and the TGI [15] was 1730 nM. The GI50 [16] was 449 nM, the TGI [16] was 4550 nM and the GI50 [17] was 45.2 nM. It also gave a TGI [17] of 5880 nM, a GI50 [18] of 61.4 nM and a TGI [18] of 682 nM. The GI50 [19] was 122 nM, the TGI [19] was 1290 nM and the GI50 [20] was 43.5 nM. It also gave a TGI [20] of 6030 nM, a GI50 [21] of 107 nM and a TGI [21] of 583 nM. It also gave a GI50 [22] of 76.7 nM, a TGI [22] of 438 nM and a GI50 [23] of 91.1 nM. The TGI [23] was 16400 nM, the GI50 [24] was 84.6 nM and the TGI [24] was 883 nM. The GI50 [25] was 86 nM, the TGI [25] was 755 nM and the GI50 [26] was 226 nM. It also gave a TGI [26] of 15400 nM, a GI50 [27] of 42.5 nM and a TGI [27] of 1430 nM.

From PubChem BioAssay (NCI)
